Measured values as given in PMC10518257 (Nature Cancer, 2023).
Values joined by “and” are separate entries in the source; they are usually repeats but may differ in a detail not shown here. Identical values can stand only once.

What was measured:
LUAD-0087AS2 cells = experiment: Growth inhibition (alamarBlue, 96 h); type: cell-based, human; conditions: LUAD-0087AS2, replicate sets
ECLC5B cells = experiment: Growth inhibition (alamarBlue, 96 h); type: cell-based, human; conditions: for raw viability signal (Source Data Fig. 3b-c): ECLC5B, replicates
LUAD-0077AS1 PDX = experiment: PDX efficacy study; type: in vivo, NSG mice; design: Tumor volume: unit not given here; conditions: for Area Under Curve Mean: Fig. 6b LUAD-0077AS1 tumor growth; for Change in tumor volume (block without heading, Fig. 6b) / Tumor volume: LUAD-0077AS1, individual animals
[1] = test system: Ba/F3 KIF5B–RET^G810R allograft tumors; experiment: Subcutaneous allograft efficacy study; type: in vivo, BALB/c nude mice; conditions: in mm³ (unit assumed);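 also: mean tumor volume per dosing group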
[2] = Transcellular transport study, apparent permeability; conditions: pig, LLC-PK1

In the case of CO[C@]1(C(=O)N[C@@H](C)c2ccc(-n3cc(F)cn3)nc2)CC[C@H](c2nc(C)cc(Nc3cc(C)[nH]n3)n2)CC1 [Pralsetinib], the “raw viability signal (Source Data Fig. 3b-c)” value (“raw viability signal” below) (LUAD-0087AS2 cells; 1 nM) is reported as 10977.2 and 15832.3 and 16084.8 and 16863, the “raw viability signal” value (LUAD-0087AS2 cells; 10 nM) is reported as 7788.62 and 8365.43 and 13487.5 and 12530.5 and the “raw viability signal” value (LUAD-0087AS2 cells; 100 nM) is reported as 2806.08 and 5716.79 and 2099.37 and 2602.78. For the same compound, the “raw viability signal” value (LUAD-0087AS2 cells; 1000 nM) was 2132.43 and 5081.65 and 1620.29 and 1608.1, the “raw viability signal” value (LUAD-0087AS2 cells; 10000 nM) was 2211.28 and 4121.33 and 1386.59 and 1376.18 and the “raw viability signal” value (ECLC5B cells; 0.01 nM) was 11159.3 and 6334.79 and 21867.4. The “raw viability signal” value (ECLC5B cells; 0.1 nM) was 11498.4 and 7246.25 and 22158.4, the “raw viability signal” value (ECLC5B cells; 1 nM) was 11273.5 and 6357.98 and 19717.2 and the “raw viability signal” value (ECLC5B cells; 10 nM) was 5160.26 and 1378.73 and 8133.57. The “raw viability signal” value (ECLC5B cells; 100 nM) was 2920.41 and 1318.47 and 4448.62, the “raw viability signal” value (ECLC5B cells; 1000 nM) was 1849.04 and 1272.17 and 3256.96 and the “raw viability signal” value (ECLC5B cells; 10000 nM) was 1438.61 and 1223.5 and 2843.35. The IC50 (ECLC5B cells; Homo sapiens, 96 h, read-out: IC50 for Inhibition of Growth (95% CI)) was 6 nM, the “Area Under Curve Mean” value (LUAD-0077AS1 PDX; 15 mg/kg BID) was 189.7 and the “Area Under Curve Mean” value (LUAD-0077AS1 PDX; 30 mg/kg BID) was -512.3. The “Change in tumor volume (block without heading, Fig. 6b)” value (LUAD-0077AS1 PDX; 15 mg/kg BID) was 31.8218 and 17.159 and 11.071 and 13.2706 and -8.805, the Tumor volume (LUAD-0077AS1 PDX; 15 mg/kg BID, treatment day 0) was 88.7 (3×) and 87.11 (2×) and the Tumor volume (LUAD-0077AS1 PDX; 15 mg/kg BID, treatment day 4) was 88.7 (4×) and 87.11. For the same compound, the Tumor volume (LUAD-0077AS1 PDX; 15 mg/kg BID, treatment day 7) was 88.7 (2×) and 80.89 and 77.87 and 90.28, the Tumor volume (LUAD-0077AS1 PDX; 15 mg/kg BID, treatment day 11) was 66.76 and 80.89 (2×) and 42.6 and 72.18 and the Tumor volume (LUAD-0077AS1 PDX; 15 mg/kg BID, treatment day 14) was 70.82 and 80.89 and 64.12 and 83.97 and 73.54. The Tumor volume (LUAD-0077AS1 PDX; 15 mg/kg BID, treatment day 19) was 80.89 and 98.67 and 103.92 and 114.83 and 98.52, the Tumor volume (LUAD-0077AS1 PDX; 15 mg/kg BID, treatment day 22) was 150.13 and 109.36 and 130.83 and 152.27 and 164.53 and the Tumor volume (LUAD-0077AS1 PDX; 15 mg/kg BID, treatment day 25) was 166.88 and 122.74 and 141.32 and 205.88 and 187.29. The “Change in tumor volume (block without heading, Fig. 6b)” value (LUAD-0077AS1 PDX; 30 mg/kg BID) was -26.3021 and -30.7542 and -32.7343 and -33.6127 and -36.9233, the Tumor volume (LUAD-0077AS1 PDX; 30 mg/kg BID, treatment day 0) was 88.7 and 87.11 (2×) and 82.36 (2×) and the Tumor volume (LUAD-0077AS1 PDX; 30 mg/kg BID, treatment day 4) was 88.7 (2×) and 87.11 and 82.36 and 83.97. The Tumor volume (LUAD-0077AS1 PDX; 30 mg/kg BID, treatment day 7) was 72.18 and 70.82 and 68.07 and 66.76 and 74.9, the Tumor volume (LUAD-0077AS1 PDX; 30 mg/kg BID, treatment day 11) was 57.83 (2×) and 60.32 (2×) and 64.12 and the Tumor volume (LUAD-0077AS1 PDX; 30 mg/kg BID, treatment day 14) was 52.07 and 53.01 (2×) and 50.68 and 49.83. For the same compound, the Tumor volume (LUAD-0077AS1 PDX; 30 mg/kg BID, treatment day 19) was 65.37 and 57.83 and 55.4 and 60.32 and 51.95, the Tumor volume (LUAD-0077AS1 PDX; 30 mg/kg BID, treatment day 22) was 65.37 and 48.41 and 53.01 and 51.95 (2×) and the Tumor volume (LUAD-0077AS1 PDX; 30 mg/kg BID, treatment day 25) was 65.37 and 83.97 and 60.32 and 53.01 and 55.4. For the same compound, the “Tumor Volume Mean” value ([1]; Fig. 7c Ba/F3-KIF5B::RET G810R, pralsetinib 10 mg/kg BID, day 1) was 154.09, the “Tumor Volume Mean” value ([1]; Fig. 7c Ba/F3-KIF5B::RET G810R, pralsetinib 10 mg/kg BID, day 4) was 213.90 and the “Tumor Volume Mean” value ([1]; Fig. 7c Ba/F3-KIF5B::RET G810R, pralsetinib 10 mg/kg BID, day 8) was 315.85. For the same compound, the “Tumor Volume Mean” value ([1]; Fig. 7c Ba/F3-KIF5B::RET G810R, pralsetinib 10 mg/kg BID, day 11) was 472.80, the “Tumor Volume Mean” value ([1]; Fig. 7c Ba/F3-KIF5B::RET G810R, pralsetinib 10 mg/kg BID, day 15) was 1059.21 and the “Tumor Volume Mean” value ([1]; Fig. 7d Ba/F3-KIF5B::RET G810R, pralsetinib 30 mg/kg BID, day 1) was 163.0. The “Tumor Volume Mean” value ([1]; Fig. 7d Ba/F3-KIF5B::RET G810R, pralsetinib 30 mg/kg BID, day 4) was 312.7, the “Tumor Volume Mean” value ([1]; Fig. 7d Ba/F3-KIF5B::RET G810R, pralsetinib 30 mg/kg BID, day 8) was 411.9 and the “Tumor Volume Mean” value ([1]; Fig. 7d Ba/F3-KIF5B::RET G810R, pralsetinib 30 mg/kg BID, day 11) was 562.8. For the same compound, the “Tumor Volume Mean” value ([1]; Fig. 7d Ba/F3-KIF5B::RET G810R, pralsetinib 30 mg/kg BID, day 15) was 747.9 and the Papp at 3 h, 1 μM [2] was 14.3 ×10⁻⁶ cm/s.
